US10519134B2, “Pyrazole compounds and methods of making and using same” (Lundbeck La Jolla Research Center, Inc., priority 2015, dated 2019)

Key:
FAAH = target: T1, FAAH (Mus musculus, UniProt O08914); experiment: In vitro competitive activity-based protein profiling (mouse), FAAH gel band; type: biochemical; settings: for inhibition at 1 µM: read-out: FAAH % inh. 1 μM; for IC50: mouse
T1 construct: Proteomes (mouse brain membrane fraction or cell lysates); from tissue; host or cells: mouse brain membrane fraction (or cell lysates)
T1 sequence (O08914 1-579): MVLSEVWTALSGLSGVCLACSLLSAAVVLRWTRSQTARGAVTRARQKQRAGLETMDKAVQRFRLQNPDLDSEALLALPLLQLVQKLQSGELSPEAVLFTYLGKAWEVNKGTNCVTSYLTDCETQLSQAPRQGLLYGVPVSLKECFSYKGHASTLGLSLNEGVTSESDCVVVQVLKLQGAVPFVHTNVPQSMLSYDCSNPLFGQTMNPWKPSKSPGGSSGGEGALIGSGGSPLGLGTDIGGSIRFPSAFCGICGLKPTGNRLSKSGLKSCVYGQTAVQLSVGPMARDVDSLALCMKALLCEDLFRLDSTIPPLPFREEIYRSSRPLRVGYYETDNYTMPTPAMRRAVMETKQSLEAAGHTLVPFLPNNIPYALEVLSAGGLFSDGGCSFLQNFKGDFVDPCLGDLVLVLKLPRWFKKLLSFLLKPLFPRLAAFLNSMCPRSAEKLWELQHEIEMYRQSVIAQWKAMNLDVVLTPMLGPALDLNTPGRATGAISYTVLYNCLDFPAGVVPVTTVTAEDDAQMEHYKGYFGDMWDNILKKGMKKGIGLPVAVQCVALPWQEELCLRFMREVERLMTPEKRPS
Summary of the method: (§1)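 Mouse brain membrane proteome or cell lysate (1.0 mg/mL protein) preincubated 30 min at 37 °C with varying inhibitor concentrations, then labelled 30 min at 37 °C with FP-Rh or HT-01 probe (50 μM stock). After SDS-PAGE, activity taken from fluorescent intensity of the MAGL and FAAH gel bands.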

MAGL = target: T2, MAGL (Mus musculus, UniProt O35678); experiment: In vitro competitive activity-based protein profiling (mouse), MAGL gel band; type: biochemical; settings: for inhibition at 1 µM: read-out: MAGL % inh. 1 μM; for IC50: mouse
T2 construct: Proteomes (mouse brain membrane fraction or cell lysates); from tissue; host or cells: mouse brain membrane fraction (or cell lysates)
T2 sequence (O35678 1-303): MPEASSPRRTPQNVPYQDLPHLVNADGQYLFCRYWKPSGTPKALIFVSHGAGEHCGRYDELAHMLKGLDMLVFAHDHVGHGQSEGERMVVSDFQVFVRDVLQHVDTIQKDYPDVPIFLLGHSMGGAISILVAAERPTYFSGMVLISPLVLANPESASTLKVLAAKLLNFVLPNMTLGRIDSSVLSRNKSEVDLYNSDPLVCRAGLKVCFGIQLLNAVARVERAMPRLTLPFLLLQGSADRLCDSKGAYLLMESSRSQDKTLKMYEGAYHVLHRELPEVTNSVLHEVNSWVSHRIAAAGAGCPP
Summary of the method: as §1

| Compound | inhibition at 1 µM (FAAH) [%] | inhibition at 1 µM (MAGL) [%] | IC50 (FAAH) [µM] | IC50 (MAGL) [µM] |
| --- | --- | --- | --- | --- |
| CS(=O)(=O)Nc1ccn(C(=O)N2CCN(Cc3ccc(C(F)(F)F)c(N4CCOCC4)c3)CC2)n1 [Example 168, N-(1-(4-(3-morpholino-4-(trifluoromethyl)benzyl)piperazine-1-carbonyl)-1H-pyrazol-3-yl) methanesulfonamide] | 0 to 25 | ≥ 75 | – | – |
| CS(=O)(=O)Nc1ccn(C(=O)N2CCC3(CCCN3Cc3cc(N4CCC(C(=O)O)CC4)cc(C(F)(F)F)c3)CC2)n1 [Example 246, 1-(3-((8-(3-(methylsulfonamido)-1H-pyrazole-1-carbonyl)-1,8-diazaspiro[4.5]decan-1-yl)methyl)-5-(trifluoromethyl)phenyl) piperidine-4-carboxylic acid] | 0 to 25 | 0 to 25 | – | – |
| CS(=O)(=O)Nc1ccn(C(=O)N2CCN(Cc3cccc(C(F)(F)F)c3N3CCC(F)CC3)CC2)n1 [Example 273, N-(1-(4-(2-(4-fluoropiperidin-1-yl)-3-(trifluoromethyl)benzyl)piperazine-1-carbonyl)-1H-pyrazol-3-yl) methanesulfonamide] | 0 to 25 | ≥ 75 | – | – |
| CS(=O)(=O)Nc1ccn(C(=O)N2CCN(Cc3ccc(Cl)c(-c4ncon4)c3)CC2)n1 [Example 261, N-(1-(4-(4-chloro-3-(1,2,4-oxadiazol-3-yl)benzyl)piperazine-1-carbonyl)-1H-pyrazol-3-yl) methanesulfonamide] | 0 to 25 | ≥ 75 | – | – |
| CS(=O)(=O)Nc1ccn(C(=O)N2CCN(C(c3ccc(Cl)cc3)c3ccc(Cl)cc3)CC2)n1 [Example 182, N-(1-(4-(bis(4-chlorophenyl)methyl)piperazine-1-carbonyl)-1H-pyrazol-3-yl) methanesulfonamide] | 0 to 25 | 0 to 25 | – | – |
| CC(=O)Nc1ccn(C(=O)N2CCC3(CCCN3Cc3ccc4c(c3)OCCO4)CC2)n1 [Example 98, N-(1-(1-((2,3-dihydrobenzo[b][1,4]dioxin-6-yl)methyl)-1,8-diazaspiro[4.5]decane-8-carbonyl)-1H-pyrazol-3-yl)acetamide] | 0 to 25 | ≥ 75 | 1 to 10 | 0.1 to 1 |
| CC(C)S(=O)(=O)Nc1ccn(C(=O)N2CCN(Cc3ccc(C(F)(F)F)cc3N3CCCC3)CC2)n1 [Example 134, N-(1-(4-(2-(pyrrolidin-1-yl)-4-(trifluoromethyl)benzyl)piperazine-1-carbonyl)-1H-pyrazol-3-yl)propane-2-sulfonamide] | 0 to 25 | 25 to 50 | 1 to 10 | 1 to 10 |
| CS(=O)(=O)Nc1ccn(C(=O)N2CCN(Cc3ccc(N4CCOCC4)cc3C(F)(F)F)CC2)n1 [Example 157, N-(1-(4-(4-morpholino-2-(trifluoromethyl)benzyl)piperazine-1-carbonyl)-1H-pyrazol-3-yl) methanesulfonamide] | 0 to 25 | 25 to 50 | – | – |
| Cc1ccc(CN2CCN(C(=O)n3ccc(NS(C)(=O)=O)n3)CC2)c(N2CCOCC2)c1 [Example 147, N-(1-(4-(4-methyl-2-morpholinobenzyl)piperazine-1-carbonyl)-1H-pyrazol-3-yl) methanesulfonamide] | 0 to 25 | ≥ 75 | – | – |
| O=C(CO)Nc1ccn(C(=O)N2CCN(Cc3cccc(Oc4ccccc4)c3)CC2)n1 [Example 92, 2-hydroxy-N-(1-(4-(3-phenoxybenzyl)piperazine-1-carbonyl)-1H-pyrazol-3-yl)acetamide] | ≥ 75 | ≥ 75 | – | – |
| CS(=O)(=O)Nc1ccn(C(=O)N2CCN(Cc3ccc(-c4ccccc4)cc3OCc3ccccc3)CC2)n1 [Example 183, N-(1-(4-((3-(benzyloxy)-[1,1′-biphenyl]-4-yl)methyl)piperine-1-carbonyl)-1H-pyrazol-3-yl) methanesulfonamide] | 0 to 25 | ≥ 75 | – | – |
| CC(=O)Nc1ccn(C(=O)N2CCC3(CCCN3Cc3ccc4nc(C)oc4c3)CC2)n1 [Example 265, N-(1-(1-((2-methylbenzo[d]oxazol-6-yl)methyl)-1,8-diazaspiro[4.5]decane-8-carbonyl)-1H-pyrazol-3-yl)acetamide] | 0 to 25 | ≥ 75 | 1 to 10 | 0.1 to 1 |
| CS(=O)(=O)Nc1ccn(C(=O)N2CCN(Cc3ccc(C(F)(F)F)cc3N3CCC(O)CC3)CC2)n1 [Example 252, N-(1-(4-(2-(4-hydroxypiperidin-1-yl)-4-(trifluoromethyl)benzyl)piperazine-1-carbonyl)-1H-pyrazol-3-yl) methanesulfonamide] | 0 to 25 | ≥ 75 | 1 to 10 | ≤ 0.1 |
| CC(=O)Nc1ccn(C(=O)N2CCN(Cc3ccc(C(F)(F)F)c(-c4nnn[nH]4)c3)CC2)n1 [Example 222, N-(1-(4-(3-(1H-tetrazol-5-yl)-4-(trifluoromethyl)benzyl)piperazine-1-carbonyl)-1H-pyrazol-3-yl)acetamide] | 0 to 25 | ≥ 75 | 1 to 10 | ≤ 0.1 |
| CC(=O)Nc1ccn(C(=O)N2CCN(Cc3ccc(C(F)(F)F)cc3N3CCC(O)CC3)CC2)n1 [Example 276, N-(1-(4-(2-(4-hydroxypiperidin-1-yl)-4-(trifluoromethyl)benzyl)piperazine-1-carbonyl)-1H-pyrazol-3-yl)acetamide] | 0 to 25 | ≥ 75 | – | – |

Now from value to compound:

| inhibition at 1 µM (FAAH) [%] | inhibition at 1 µM (MAGL) [%] | IC50 (FAAH) [µM] | IC50 (MAGL) [µM] | Compound |
| --- | --- | --- | --- | --- |
| 0 to 25 | ≥ 75 | – | – | CC(=O)Nc1ccn(C(=O)N2CCC3(CCCN3Cc3ccc(C(F)(F)F)cc3OCC(=O)N3CCCC3)CC2)n1 [Example 89, N-(1-(1-(2-(2-oxo-2-(pyrrolidin-1-yl)ethoxy)-4-(trifluoromethyl)benzyl)-1,8-diazaspiro[4.5]decane-8-carbonyl)-1H-pyrazol-3-yl)acetamide] |
| 25 to 50 | ≥ 75 | 1 to 10 | 0.1 to 1 | CC(=O)Nc1ccn(C(=O)N2CCC3(CCCN3Cc3ccc(C(F)(F)F)cc3OC3CCS(=O)(=O)CC3)CC2)n1 [Example 87, N-(1-(1-(2-((1,1-dioxidotetrahydro-2H-thiopyran-4-yl)oxy)-4-(trifluoromethyl)benzyl)-1,8-diazaspiro[4.5]decane-8-carbonyl)-1H-pyrazol-3-yl)acetamide] |
| 25 to 50 | ≥ 75 | – | – | CC(=O)Nc1ccn(C(=O)N2CCC3(CCCN3Cc3ccc(Cl)c(C(F)(F)F)c3)CC2)n1 [Example 25, N-(1-(1-(4-chloro-3-(trifluoromethyl)benzyl)-1,8-diazaspiro[4.5]decane-8-carbonyl)-1H-pyrazol-3-yl)acetamide] |
| 0 to 25 | 50 to 75 | – | – | CC(=O)N(C)c1ccn(C(=O)N2CCC3(CCCN3Cc3cc(N4CCCC4)cc(C(F)(F)F)c3)CC2)n1 [Example 66, N-methyl-N-(1-(1-(3-(pyrrolidin-1-yl)-5-(trifluoromethyl)benzyl)-1,8-diazaspiro[4.5]decane-8-carbonyl)-1H-pyrazol-3-yl)acetamide] |
| 0 to 25 | ≥ 75 | 1 to 10 | ≤ 0.1 | CC(=O)Nc1ccn(C(=O)N2CCC3(CCCN3Cc3ccc(C(F)(F)F)cc3N3CCC4(C3)CN(S(C)(=O)=O)C4)CC2)n1 [Example 27, N-(1-(1-(2-(2-(methylsulfonyl)-2,6-diazaspiro[3.4]octan-6-yl)-4-(trifluoromethyl)benzyl)-1,8-diazaspiro[4.5]decane-8-carbonyl)-1H-pyrazol-3-yl)acetamide] |
| 0 to 25 | 0 to 25 | – | – | CS(=O)(=O)Nc1ccn(C(=O)N2CCC3(CCCN3Cc3ccc(C(F)(F)F)cc3N3CCN(S(C)(=O)=O)CC3)CC2)n1 [Example 255, N-(1-(1-(2-(4-(methylsulfonyl)piperazin-1-yl)-4-(trifluoromethyl)benzyl)-1,8-diazaspiro[4.5]decane-8-carbonyl)-1H-pyrazol-3-yl) methanesulfonamide] |
| 0 to 25 | 0 to 25 | – | – | CS(=O)(=O)Nc1ccn(C(=O)N2CCC3(CCCN3Cc3ccc(C(F)(F)F)cc3N3CCC(C(=O)O)C3)CC2)n1 (stereo not shown) [Example 245, 1-(2-((8-(3-(methylsulfonamido)-1H-pyrazole-1-carbonyl)-1,8-diazaspiro[4.5]decan-1-yl)methyl)-5-(trifluoromethyl)phenyl) pyrrolidine-3-carboxylic acid] |
